Measurements as given in the NIST ThermoML archive (doi:10.1021/acs.jced.6b00350).
Values joined by “and” are separate entries in the source; they are usually repeats but may differ in a detail not shown here. Identical values can stand only once.

Settings: Liquid, Hot wire method

FC(F)CC(F)(F)F [1,1,1,3,3-pentafluoropropane]
Settings | thermal conductivity
242.09 K, 15292 kPa | 0.1107 W/m/K
242.09 K, 33385 kPa | 0.1154 W/m/K
242.09 K, 46702 kPa | 0.1187 W/m/K
242.09 K, 46703 kPa | 0.1195 W/m/K
242.1 K, 15296 kPa | 0.1107 W/m/K
242.1 K, 21026 kPa | 0.1124 W/m/K
242.1 K, 21045 kPa | 0.1126 W/m/K
242.1 K, 33384 kPa | 0.1155 W/m/K
242.1 K, 53712 kPa | 0.1203 W/m/K
242.11 K, 9885 kPa | 0.1091 W/m/K
242.11 K, 9889 kPa | 0.1086 W/m/K
242.11 K, 26987 kPa | 0.1139 W/m/K
242.11 K, 39778 kPa | 0.1171 W/m/K
242.12 K, 26965 kPa | 0.1139 W/m/K
242.12 K, 39775 kPa | 0.1171 W/m/K
242.12 K, 53701 kPa | 0.1203 W/m/K
242.12 K, 61286 kPa | 0.1221 W/m/K
242.13 K, 61278 kPa | 0.1219 W/m/K
242.14 K, 68636 kPa | 0.1235 W/m/K
242.14 K, 68676 kPa | 0.1235 W/m/K
242.19 K, 312 kPa | 0.1058 W/m/K and 0.1064 W/m/K
242.19 K, 4998 kPa | 0.1075 W/m/K
242.19 K, 5009 kPa | 0.1078 W/m/K
242.51 K, 46692 kPa | 0.1189 W/m/K
242.52 K, 46700 kPa | 0.1191 W/m/K
242.54 K, 33390 kPa | 0.1155 W/m/K
242.54 K, 33403 kPa | 0.1154 W/m/K
242.54 K, 53700 kPa | 0.1204 W/m/K
242.54 K, 53711 kPa | 0.1205 W/m/K
242.54 K, 61277 kPa | 0.1221 W/m/K
242.55 K, 15291 kPa | 0.1107 W/m/K
242.55 K, 21035 kPa | 0.1123 W/m/K
242.55 K, 21038 kPa | 0.1121 W/m/K
242.55 K, 39775 kPa | 0.117 W/m/K
242.55 K, 39776 kPa | 0.1173 W/m/K
242.55 K, 61245 kPa | 0.122 W/m/K
242.55 K, 68688 kPa | 0.1238 W/m/K
242.56 K, 26980 kPa | 0.1136 W/m/K
242.56 K, 26983 kPa | 0.114 W/m/K
242.56 K, 68673 kPa | 0.1236 W/m/K
242.57 K, 9883 kPa | 0.109 W/m/K
242.58 K, 9889 kPa | 0.1092 W/m/K
242.65 K, 5012 kPa | 0.1074 W/m/K
242.66 K, 307 kPa | 0.1056 W/m/K
242.66 K, 5012 kPa | 0.1074 W/m/K
242.67 K, 311 kPa | 0.1059 W/m/K
242.99 K, 46699 kPa | 0.1186 W/m/K
242.99 K, 46703 kPa | 0.1187 W/m/K
242.99 K, 53703 kPa | 0.1204 W/m/K
242.99 K, 53705 kPa | 0.1205 W/m/K
243 K, 61280 kPa | 0.122 W/m/K
243.01 K, 33387 kPa | 0.1153 W/m/K
243.01 K, 61272 kPa | 0.122 W/m/K
243.01 K, 68624 kPa | 0.1235 W/m/K
243.01 K, 68665 kPa | 0.1235 W/m/K
243.02 K, 33391 kPa | 0.1157 W/m/K
243.02 K, 39783 kPa | 0.117 W/m/K
243.03 K, 39791 kPa | 0.1173 W/m/K
243.04 K, 15285 kPa | 0.1108 W/m/K
243.04 K, 21046 kPa | 0.1119 W/m/K
243.04 K, 26979 kPa | 0.1139 W/m/K
243.05 K, 21037 kPa | 0.1122 W/m/K
243.05 K, 26975 kPa | 0.1137 W/m/K
243.06 K, 15300 kPa | 0.1105 W/m/K
243.07 K, 9881 kPa | 0.1091 W/m/K
243.07 K, 9885 kPa | 0.1094 W/m/K
243.16 K, 5024 kPa | 0.1074 W/m/K
243.17 K, 305 kPa | 0.1059 W/m/K
243.17 K, 5015 kPa | 0.1075 W/m/K
243.18 K, 306 kPa | 0.1061 W/m/K
261.13 K, 36952 kPa | 0.1131 W/m/K
261.13 K, 36968 kPa | 0.1135 W/m/K
261.17 K, 4289 kPa | 0.1031 W/m/K
261.17 K, 4298 kPa | 0.1027 W/m/K
261.17 K, 8849 kPa | 0.103 W/m/K
261.19 K, 14126 kPa | 0.1062 W/m/K
261.2 K, 14118 kPa | 0.106 W/m/K
261.21 K, 254 kPa | 0.1005 W/m/K
261.21 K, 260 kPa | 0.1005 W/m/K
261.21 K, 25237 kPa | 0.1087 W/m/K
261.22 K, 25223 kPa | 0.1081 W/m/K
261.23 K, 31202 kPa | 0.1113 W/m/K
261.23 K, 31204 kPa | 0.1116 W/m/K
261.52 K, 43978 kPa | 0.1147 W/m/K
261.55 K, 51260 kPa | 0.1154 W/m/K
261.55 K, 51262 kPa | 0.1153 W/m/K
261.56 K, 8838 kPa | 0.1026 W/m/K
261.57 K, 8847 kPa | 0.1029 W/m/K
261.57 K, 58812 kPa | 0.1174 W/m/K
261.58 K, 14132 kPa | 0.1051 W/m/K
261.58 K, 58797 kPa | 0.1178 W/m/K
261.6 K, 25212 kPa | 0.1084 W/m/K
261.6 K, 31216 kPa | 0.1112 W/m/K
261.61 K, 256 kPa | 0.09949 W/m/K
261.61 K, 263 kPa | 0.09978 W/m/K
261.61 K, 19564 kPa | 0.1066 W/m/K
261.61 K, 68826 kPa | 0.1202 W/m/K
261.61 K, 68837 kPa | 0.1206 W/m/K
261.62 K, 19569 kPa | 0.107 W/m/K
261.63 K, 68933 kPa | 0.1198 W/m/K
261.64 K, 68930 kPa | 0.1197 W/m/K
261.9 K, 36964 kPa | 0.1125 W/m/K
261.92 K, 43962 kPa | 0.1136 W/m/K
261.93 K, 43919 kPa | 0.1146 W/m/K
261.94 K, 51257 kPa | 0.1157 W/m/K
261.95 K, 51262 kPa | 0.1157 W/m/K
261.96 K, 58819 kPa | 0.1174 W/m/K
261.96 K, 58829 kPa | 0.1179 W/m/K
261.99 K, 68802 kPa | 0.1199 W/m/K
261.99 K, 68824 kPa | 0.1198 W/m/K
262 K, 8855 kPa | 0.1037 W/m/K
262 K, 8858 kPa | 0.1032 W/m/K
262 K, 14134 kPa | 0.105 W/m/K
262.01 K, 4294 kPa | 0.1017 W/m/K
262.01 K, 4301 kPa | 0.1014 W/m/K
262.01 K, 14121 kPa | 0.1049 W/m/K
262.01 K, 25254 kPa | 0.1088 W/m/K
262.01 K, 25264 kPa | 0.1087 W/m/K
262.01 K, 31199 kPa | 0.1102 W/m/K and 0.1104 W/m/K
262.01 K, 68921 kPa | 0.1199 W/m/K
262.02 K, 68914 kPa | 0.1199 W/m/K
262.04 K, 19538 kPa | 0.1069 W/m/K
262.04 K, 19563 kPa | 0.1063 W/m/K
262.06 K, 260 kPa | 0.1002 W/m/K
262.06 K, 263 kPa | 0.1001 W/m/K
262.33 K, 36929 kPa | 0.1119 W/m/K
262.35 K, 36937 kPa | 0.1119 W/m/K
262.36 K, 43961 kPa | 0.1135 W/m/K
262.36 K, 43965 kPa | 0.1138 W/m/K
262.37 K, 51242 kPa | 0.1157 W/m/K
262.38 K, 51253 kPa | 0.1155 W/m/K
262.39 K, 58814 kPa | 0.1181 W/m/K
262.39 K, 58816 kPa | 0.1176 W/m/K
262.4 K, 68835 kPa | 0.1199 W/m/K
262.41 K, 68836 kPa | 0.1198 W/m/K
262.43 K, 68875 kPa | 0.1199 W/m/K
262.43 K, 68907 kPa | 0.1196 W/m/K
262.46 K, 8826 kPa | 0.1033 W/m/K
262.46 K, 25272 kPa | 0.1083 W/m/K
